Key:
FAPα/A549 cells = test: Uptake of 211At-labeled FAPI derivatives into A549 and FAPα/A549 cells; type: cell-based, human; conditions: for uptake level in dependence on FAPα expression: A549 (low FAPα) vs FAPα/A549 (high FAPα), 30 min; for competitive inhibition by addition of the corresponding unlabeled form: A549 / FAPα/A549 cells
Source text: (§1) Human non-small cell lung cancer cell lines (A549), human triple-negative (estrogen and progesterone receptors which are hormone receptors, as well as HER2 protein, are all absent) breast cancer cell lines (MDA-MB-231), and A549 cells and MDA-MB-231 cells, each transfected with the human fibroblast activation protein (FAPα) gene (FAPα/A549, FAPα/MDA-MB-231) were used in the experiments as cancer cells with low FAPα expression and cancer cells with high FAPα expression (mimic after high-order histogenesis), respectively. For each type, the cells were seeded in a 24-well plate at 2×10^4 cells per well and cultured for 2 days. An appropriate amount of two ^211At-labeled FAPI derivatives (PIP(1,H) […], PIP-amide(1,H) (Example 14)) were added to each type of the above cells, respectively, and cultured for 30 min. The supernatant was removed by aspiration, and the cells were washed with PBS(−), and then 0.1N sodium hydroxide solution was added to lyse the cells, and the intracellular radioactivity was measured by a gamma counter. The radioactivity count was corrected per unit protein amount (counts/μg protein). […] Considering that the uptake level into human embryonic kidney-derived cells (HEK293) was about 20 counts/μg protein at most, based on the results of PIP(1,F) and the like in Experimental Example 1, it can be said that cancer cells take up more FAPI derivatives than non-cancer cells.

FAPα/MDA-MB-231 cells = test: Uptake of 211At-labeled FAPI derivatives into MDA-MB-231 and FAPα/MDA-MB-231 cells; type: cell-based, human; conditions: for uptake level in dependence on FAPα expression: MDA-MB-231 (low FAPα) vs FAPα/MDA-MB-231 (high FAPα), 30 min; for competitive inhibition by addition of the corresponding unlabeled form: MDA-MB-231 / FAPα/MDA-MB-231 cells
Source text: as §1

[1] = tested on: FAPα/293 cells (293 cells transfected with the human fibroblast activation protein (FAPα) gene); test: Uptake of 211At-labeled FAPI derivatives into FAPα/293 cells; type: cell-based; conditions: cultured 30 min, gamma counter, rank order of the three highest of eight derivatives
Experimental: Human embryonic kidney 293 cells (HEK293), and 293 cells transfected with the human fibroblast activation protein (FAPα) gene (FAPα/293) were used in the experiment as FAPα-negative and FAPα-positive cells, respectively. For each type, the cells were seeded in a 24-well plate at 2×10^4 cells per well and cultured for 2 days. An appropriate amount of eight ^211At-labeled FAPI derivatives (Gly(1,F) (Example 8), PEG(1,F) (Example 5), PIP(1,F) (Example 1), PIP(1,H)-8Qui (Example 3), Ac-PIP (Example 13), PEG4(1,H) (Example 7), GlcN-PEG(1,F) (Example 11), PEG(1,H) (Example 6)) were added to each type of the above cells, respectively, and cultured for 30 min. The supernatant was removed by aspiration, and then 0.1N sodium hydroxide solution was added to lyse the cells, and the intracellular radioactivity was measured by a gamma counter. The radioactivity count was corrected per unit protein amount (counts/μg protein). The three compounds with the highest uptake levels into FAPα-positive cells were PIP(1,F)>PIP(1,H)-8Qui>PEG(1,H), in order of […] level.

[2] = Stability of the radiolabeled product; type: physicochemical; conditions: alkylene chain length 0, after purification
[3] = Changes in body weight of human pancreatic cancer-transplanted mice; type: in vivo, nude mice; conditions: intravenous 1 MBq per mouse, N=4, three weeks, vs saline control
Experimental: (§2) Human pancreatic cancer cells (PANC-1) were subcutaneously administered at 1×10^7 cells to nude mice (male, 6-weeks old) to generate pancreatic cancer-transplanted mice. The mice were intravenously injected with ^211At(C1)-Pip-6Qui-FAPI(H) (PIP(1,H), Example 2) or 211At(C1)-PEG2-6Qui-FAPI(H) (PEG(1,H), Example 6) at 1 MBq per mouse (N=4). Physiological saline was administered to the control group (Control (Saline)) (N=4).

[4] = tested on: Human pancreatic cancer cells (PANC-1); test: Inhibitory effect on tumor growth in human pancreatic cancer-transplanted mice; type: in vivo, nude mice; conditions: PANC-1 subcutaneous, intravenous 1 MBq per mouse, N=4, three weeks, vs saline control
Experimental: as §2

Row | Compound | uptake level in dependence on FAPα expression (FAPα/A549 cells) | competitive inhibition by addition of the corresponding unlabeled form (FAPα/A549 cells) | uptake level in dependence on FAPα expression (FAPα/MDA-MB-231 cells) | competitive inhibition by addition of the corresponding unlabeled form (FAPα/MDA-MB-231 cells) | uptake levels into FAPα-positive cells (intracellular radioactivity) [1] | stability of the product [2] | changes in body weight [3] | inhibitory effect on tumor growth (tumor size) [4] | also measured
1 | N#C[C@@H]1CCCN1C(=O)CNC(=O)c1ccnc2ccc(OCCC(=O)N3CCN(C(=O)Cc4ccc([211At])cc4)CC3)cc12 [Example 14, ^211At(C1)-Pip-amido-6Qui-FAPI(H)] | uptake level increased as FAPα expression increased | could be suppressed to a low level | uptake level increased as FAPα expression increased | could be suppressed to a low level |  |  |  |  | 
2 | N#C[C@@H]1CCCN1C(=O)CNC(=O)c1ccnc2c(OCCCN3CCN(C(=O)Cc4ccc([211At])cc4)CC3)cccc12 [Example 3, ^211At(C1)-Pip-8Qui-FAPI(H)] |  |  |  |  | PIP(1,F)>PIP(1,H)-8Qui>PEG(1,H) |  |  |  | 
3 | N#C[C@@H]1CC(F)(F)CN1C(=O)CNC(=O)c1ccnc2ccc(OCCCN3CCN(C(=O)CCCO[C@@H]4OC(CO)[C@@H](O)C(O)[C@@H]4NC(=O)c4ccc([211At])cc4)CC3)cc12 (stereo partly drawn) [Example 9, ^211At(CO)-GlcN-Pip-6Qui-FAPI(F)] |  |  |  |  |  | low |  |  | 
4 | N#C[C@@H]1CCCN1C(=O)CNC(=O)c1ccnc2ccc(OCCCN3CCN(C(=O)CCCO[C@@H]4OC(CO)[C@@H](O)C(O)[C@@H]4NC(=O)c4ccc([211At])cc4)CC3)cc12 (stereo partly drawn) [Example 10, ^211At(C0)-GlcN-Pip-6Qui-FAPI(H)] |  |  |  |  |  | low |  |  | 
5 | N#C[C@@H]1CCCN1C(=O)CNC(=O)c1ccnc2ccc(OCCCN3CCN(C(=O)Cc4ccc([211At])cc4)CC3)cc12 [Example 2, ^211At(C1)-Pip-6Qui-FAPI(H)] | uptake level increased as FAPα expression increased | could be suppressed to a low level | uptake level increased as FAPα expression increased | could be suppressed to a low level |  |  | comparable to that of the control group | superior inhibitory effects on tumor growth compared to the control group | uptake level (intracellular radioactivity), comparison between derivatives (FAPα/A549 cells; A549 and FAPα/A549 cells, cultured 30 min): slightly higher than that of PIP-amide(1,H); uptake level (intracellular radioactivity), comparison between derivatives (FAPα/MDA-MB-231 cells; MDA-MB-231 and FAPα/MDA-MB-231 cells, cultured 30 min): slightly higher than that of PIP-amide(1,H)
6 | N#C[C@@H]1CCCN1C(=O)CNC(=O)c1ccnc2ccc(OCCOCCNC(=O)Cc3ccc([211At])cc3)cc12 [Example 6, ^211At(C1)-PEG2-6Qui-FAPI(H)] |  |  |  |  | PIP(1,F)>PIP(1,H)-8Qui>PEG(1,H) |  | comparable to that of the control group | superior inhibitory effects on tumor growth compared to the control group | 

From patent publication US20260199533A1, “RA[…]-AFFINITY COMPOUND AND USE THEREOF” (Osaka University, priority 2022, published 2026)
